Source: patent US9062057B2, “CCR5 antagonists for treating HIV” (Purdue Research Foundation, priority 2010, dated 2015)

The compounds below were run against CCR5 chemokine receptor (Homo sapiens, UniProt P51681) (assay: Inhibition Data (IC50; no method described)). Conditions: assay not described, read-out: Activity (*) (IC50 class).
CCR5 chemokine receptor, sequence (P51681 whole entry): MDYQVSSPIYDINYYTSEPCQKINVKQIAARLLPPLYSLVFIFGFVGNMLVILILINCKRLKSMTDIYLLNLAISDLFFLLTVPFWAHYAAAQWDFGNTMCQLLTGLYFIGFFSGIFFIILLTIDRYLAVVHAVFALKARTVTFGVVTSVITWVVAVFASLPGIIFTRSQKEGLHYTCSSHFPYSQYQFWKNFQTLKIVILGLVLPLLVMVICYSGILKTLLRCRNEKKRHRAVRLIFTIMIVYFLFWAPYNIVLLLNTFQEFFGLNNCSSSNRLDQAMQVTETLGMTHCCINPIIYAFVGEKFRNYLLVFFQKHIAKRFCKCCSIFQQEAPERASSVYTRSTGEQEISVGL
`CN(CC(C)(CCN1CCC2C(CCN2C(=O)OC2CO[C@H]3OCCC23)C1)c1ccccc1)S(=O)(=O)c1ccccc1` (some centres unmarked) [Example 28] was tested, and the IC50 was < 100 nM. For `CN(CC(C)(CCN1CCC2C(CCN2C(=O)OC2CCOC2)C1)c1ccccc1)S(=O)(=O)c1ccccc1` (centres unmarked) [Example 29], the IC50 was < 1000 nM. With `CO[C@@](CCN1CCC2C(CCN2C(=O)OC(C)(C)C)C1)(CN(C)S(=O)(=O)c1ccccc1)c1ccccc1` (some centres unmarked) [Example 30] the IC50 was < 1000 nM. In the case of `CO[C@](CCN1CCC2C(CCN2C(=O)OC(C)(C)C)C1)(CN(C)S(=O)(=O)c1ccccc1)c1ccccc1` (some centres unmarked) [Example 31], the IC50 is reported as < 1000 nM. For `CN(CC(C)(CCN1CCC2C(CCN2C(=O)OC(C)(C)C)C1)c1ccccc1)S(=O)(=O)c1ccccc1` (centres unmarked) [Example 32], the IC50 was < 100 nM. With `CN(CC(C)(CCN1CCC2C(CCN2C(=O)OC(C)(C)C)C1)c1ccccc1)S(=O)(=O)c1ccc(C(=O)OCc2ccccc2)cc1` (centres unmarked) [Example 33] the IC50 was < 1000 nM. `CN(CC(C)(CCN1CCC2C(CCN2C(=O)OC(C)(C)C)C1)c1ccccc1)S(=O)(=O)c1ccc(C(=O)O)cc1` (centres unmarked) [Example 34] was tested, and the IC50 was < 100 nM. For `CC(=O)OC(OC(C)=O)c1ccc(S(=O)(=O)N(C)CC(C)(CCN2CCC3C(CCN3C(=O)OC(C)(C)C)C2)c2ccccc2)cc1` (centres unmarked) [Example 35], the IC50 was < 100 nM. For `COC(OC)c1ccc(S(=O)(=O)N(C)CC(C)(CCN2CCC3C(CCN3C(=O)OC(C)(C)C)C2)c2ccccc2)cc1` (centres unmarked) [Example 36], the IC50 was < 100 nM. `CN(CC(C)(CCN1CCC2C(CCN2C(=O)OC(C)(C)C)C1)c1ccccc1)S(=O)(=O)c1ccc(CNC(=O)OCc2ccccc2)cc1` (centres unmarked) [Example 37] was tested, and the IC50 was < 1000 nM. With `CC(=O)NCc1ccc(S(=O)(=O)N(C)CC(C)(CCN2CCC3C(CCN3C(=O)OC(C)(C)C)C2)c2ccccc2)cc1` (centres unmarked) [Example 38] the IC50 was < 100 nM. With `CN(CC(C)(CCN1CCC2C(CCN2C(=O)OC(C)(C)C)C1)c1ccccc1)S(=O)(=O)c1ccc(CNC(=O)OC(C)(C)C)cc1` (centres unmarked) [Example 39] the IC50 was < 1000 nM. With `CN(CC(C)(CCN1CCC2C(CCN2C(=O)OC(C)(C)C)C1)c1ccccc1)S(=O)(=O)c1ccc(CNC(=O)O[C@H]2CCOC2)cc1` (some centres unmarked) [Example 40] the IC50 was < 100 nM. In the case of `CN(CC(C)(CCN1CCC2C(CCN2C(=O)OC(C)(C)C)C1)c1ccccc1)S(=O)(=O)c1ccc(CN)cc1` (centres unmarked) [Example 41], the IC50 is reported as < 1000 nM. In the case of `CN(C[C@@](C)(CCN1CCC2C(CCN2C(=O)OC(C)(C)C)C1)c1ccccc1)S(=O)(=O)c1ccccc1` (some centres unmarked) [Example 43], the IC50 is reported as < 100 nM. In the case of `CN(C[C@@](C)(CCN1CC[C@@H]2[C@@H](CCN2C(=O)OC(C)(C)C)C1)c1ccccc1)S(=O)(=O)c1ccccc1` [Example 44], the IC50 is reported as < 10 nM. In the case of `CN(C[C@@](C)(CCN1CC[C@@H]2[C@@H](CCN2C(=O)OC(C)(C)C)C1)c1ccccc1)S(=O)(=O)c1ccccc1` [Example 46], the IC50 is reported as < 1000 nM. In the case of `CC1CN(CC[C@](C)(CN(C)S(=O)(=O)c2ccccc2)c2ccccc2)CCC12C=Cc1ccccc12` (some centres unmarked) [Example 48], the IC50 is reported as < 1000 nM. `COc1ccc(C(C)(CCN2CCC3C(CCN3C(=O)OC(C)(C)C)C2)CN(C)S(=O)(=O)c2ccccc2)cc1` (centres unmarked) [Example 49] was tested, and the IC50 was < 100 nM. In the case of `COc1cccc(C(C)(CCN2CCC3C(CCN3C(=O)OC(C)(C)C)C2)CN(C)S(=O)(=O)c2ccccc2)c1` (centres unmarked) [Example 50], the IC50 is reported as < 1000 nM. With `CN1N=C2CCN(CC[C@](C)(CN(C)S(=O)(=O)c3ccccc3)c3ccccc3)CC2(C)C1=O` (some centres unmarked) [Example 51] the IC50 was < 1000 nM. With `CN1N=C2CCN(CC[C@](C)(CN(C)S(=O)(=O)c3ccccc3)c3ccccc3)CC2(Cc2ccccc2)C1=O` (some centres unmarked) [Example 52] the IC50 was < 1000 nM. `COC(=O)[C@@H](CCSC)NC(=O)C1CCN(CC[C@](C)(CN(C)S(=O)(=O)c2ccccc2)c2ccccc2)CC1` [Example 56] was tested, and the IC50 was < 1000 nM. For `CN(C[C@@](C)(CCN1CCC2(CC1)CCN(C(=O)OC(C)(C)C)C2)c1ccccc1)S(=O)(=O)c1ccccc1` [Example 58], the IC50 was < 1000 nM. With `CN(C[C@@](C)(CCN1CC2CN(C(=O)OC(C)(C)C)[C@H]2C1)c1ccccc1)S(=O)(=O)c1ccccc1` (some centres unmarked) [Example 64] the IC50 was < 1000 nM. In the case of `CN(C[C@@](C)(CCN1CCC2(CCCN2C(=O)OC(C)(C)C)CC1)c1ccccc1)S(=O)(=O)c1ccccc1` [Example 65], the IC50 is reported as < 1000 nM. With `CN(C[C@@](C)(CCNC1C2CCC1CN(C(=O)OC(C)(C)C)C2)c1ccccc1)S(=O)(=O)c1ccccc1` (some centres unmarked) [Example 66] the IC50 was < 1000 nM. With `CN(C[C@@](C)(CCNC1CC2CCC(C1)N2C(=O)OC(C)(C)C)c1ccccc1)S(=O)(=O)c1ccccc1` (some centres unmarked) [Example 67] the IC50 was < 1000 nM. `CN(C[C@@](C)(CCN1CC[C@H]2CNC(=O)[C@H]2C1)c1ccccc1)S(=O)(=O)c1ccccc1` [Example 69] was tested, and the IC50 was < 1000 nM. With `CN(C[C@@](C)(CCN1C2CCC1CC(NC(=O)OC(C)(C)C)C2)c1ccccc1)S(=O)(=O)c1ccccc1` (some centres unmarked) [Example 70] the IC50 was < 1000 nM. `CN(C[C@@](C)(CCN1CC[C@H]2OC(C)(C)O[C@H]2C1)c1ccccc1)S(=O)(=O)c1ccccc1` [Example 71] was tested, and the IC50 was < 1000 nM. `CC(C)[C@H](NC(=O)OCc1ccccc1)C(=O)N1CC2CN(C(=O)OC(C)(C)C)CC[C@H]2C1` (some centres unmarked) [Example 72] was tested, and the IC50 was < 1000 nM. With `CC(C)(C)OC(=O)N1CC[C@H]2CN(C(=O)O[C@H]3CCOC3)C[C@H]2C1` [Example 74] the IC50 was < 1000 nM. In the case of `CN(C[C@@](C)(CCN1CC[C@H]2CN(C(=O)OCc3ccccc3)C[C@H]2C1)c1ccccc1)S(=O)(=O)c1ccccc1` [Example 75], the IC50 is reported as < 1000 nM. With `CN(C[C@@](C)(CCN1CC[C@H]2CN(C(N)=O)C[C@H]2C1)c1ccccc1)S(=O)(=O)c1ccccc1` [Example 76] the IC50 was < 1000 nM. `CN(C[C@@](C)(CCN1CCc2[nH][nH]c(=O)c2C1)c1ccccc1)S(=O)(=O)c1ccccc1` [Example 78] was tested, and the IC50 was < 1000 nM. `C[C@H](NC(=O)N1CC2CN(CC[C@](C)(CN(C)S(=O)(=O)c3ccccc3)c3ccccc3)CC[C@H]2C1)c1cccc2ccccc12` (some centres unmarked) [Example 79] was tested, and the IC50 was < 1000 nM. With `Cc1nnc(C2CO[C@H]3OCCC23)n1C1CC2CCC(C1)N2CC[C@H](NC(=O)OCc1ccccc1)c1ccccc1` (some centres unmarked) [Example 80] the IC50 was < 100 nM. For `Cc1nnc(C2CO[C@H]3OCCC23)n1C1CC2CCC(C1)N2CC[C@H](NS(=O)(=O)c1ccc2c(c1)OCO2)c1ccccc1` (some centres unmarked) [Example 81], the IC50 was < 1000 nM. `Cc1nnc(C2CO[C@H]3OCCC23)n1C1CC2CCC(C1)N2CC[C@H](N)c1ccccc1` (some centres unmarked) [Example 82] was tested, and the IC50 was < 1000 nM. `Cc1ccc(S(=O)(=O)N[C@@H](CCN2C3CCC2CC(n2c(C)nnc2C2CO[C@H]4OCCC24)C3)c2ccccc2)cc1` (some centres unmarked) [Example 83] was tested, and the IC50 was < 1000 nM.
